# Assay results reported in patent US10098352B2, “Honeybee repellents and uses thereof” (Inscent, Inc., priority 2011, dated 2018).
# What was measured:
# [1] = system: Apis mellifera Carniolan foraging worker honeybees; experiment: Proboscis extension response (PER) assay in bees conditioned to 2-heptanone; type: in vivo; conditions: final compound concentration 0.5% (TRITON X-100/water), 4 s exposure; only bees PER-positive to 2-heptanone and negative to controls counted
# Experimental: To determine whether a living honeybee can recognize a candidate compound, these compounds were tested using a proboscis extension response (PER) assay using classical conditioning approaches. Proboscis extension response conditioning is a case of appetitive learning, in which bees learn to associate odor stimuli with sucrose reward in the laboratory. In this case, bees were conditioned to produce a PER to 2-heptanone as the conditioned stimulus and a sugar reward as the unconditioned stimulus. These trained bees were then exposed to an odor pulse of a candidate compound to test whether a candidate compound would also produce a PER. If the candidate compound “mimics” 2-heptanone then the honeybee will extend its proboscis.
# For conditioning procedures, Apis mellifera Carniolan foraging worker honeybees were obtained from a local apiary (typically 60 bees per shipment). The honeybees were held overnight in insect cages with food and water freely available, in an environmentally controlled room on a light cycle similar to the ambient cycle at the time of the assay.
# For conditioning procedures, all tests were done in an odorant delivery apparatus set inside a fume hood. The apparatus comprised a set of open-ended, horizontal, 3 cm diameter by 10 cm long plastic tubes. Each tube was designed where a honeybee could be positioned at the distal end of a tube, with the opening at the other end of the tube located proximal to an inlet of the fume hood. To deliver an odorant, room air was pumped by a diaphragm pump through a particle filter via 0.25 inch plastic tubing at approximately 0.7 m/sec. The air flow passes into the headspace above an odorant (0.5% [v/v]2-heptanone dissolved in odorless light paraffin oil) contained in a 100 mL bottle. The headspace air then passes through another plastic tube to a manifold of 4-way valves, each of which was attached near the proximal end of a plastic tube containing a bee. Each bee was exposed separately for a desired time period to the odorant by opening and closing the appropriate valve. When each valve was closed, the odor was flushed away immediately by the continuous fume hood air stream.
# To train a honeybee to respond to a conditioned and unconditioned stimuli, bees were placed, without anesthesia, in individual 1.5 mL micro-centrifuge holding tubes and held overnight without access to food or water. The holding tubes containing the starved bees were placed in racks in groups of eight. One rack at a time was placed behind the odorant delivery apparatus so that each bee's head is centered at the distal end of a horizontal plastic tube. Each bee was exposed to the 2-heptanone odorant alone for four seconds, and then while being fed an 80% sucrose solution for and additional three seconds. The sucrose solution was delivered on a piece of saturated filter paper held in forceps. […] Positive and negative responses were recorded. A positive PER was scored when a bee extended its proboscis before the sucrose appeared. In a typical trial, 48 individual bees were subjected to conditioning. Six rounds of training were done before testing began, and typically a majority of the bees were successfully conditioned by the second or third round of training.
# After conditioning, honeybees were tested with the candidate compounds the same day or on the following day or, most commonly, both. When held overnight, bees were fed with sucrose and kept in their holding tubes. When tested the day after training, bees were given one or more rounds of conditioning with 2-heptatone to refresh their memories. Candidate compounds stocks were made at 5% (w/v) in polyoxyethylene octyl phenyl ether (TRITON® X-100), a non-ionic detergent/surfactant, and stored at 4° C. This detergent is similar to substances used as carriers for a variety of commercial pest-control agents, can act as a solvent for both hydrophilic and hydrophobic substances, and is itself nearly odorless. […]
# OBP2 = experiment: Fluorescent-quench ligand-protein-binding assay (OBP2 binding screen); design: species or system Apis mellifera; key: Low, indicates no detectable binding to OBP2.; Moderate, indicates that 50% or less of the compound bound to OBP2.; Strong, indicates that 51% or more of the compound bound to OBP2
# Excerpt: To identify a honeybee repellent disclosed herein, candidate compounds were screened based upon the fact that 2-heptanone is an established repellent of bees. 2-heptanone is thought to mediate its behavioral response through binding to a specific odorant-binding protein called OBP2. Therefore compounds that bind OBP2 have the potential to act as odor “mimics” of 2-heptanone. By utilizing a fluorescent-quench, ligand-protein-binding assay, 30,000 compounds from the DIVERSET® library (ChemBridge Corp., San Diego, Calif.), a chemical library, were screened and over 150 candidate compounds were isolated that bind OBP2 (Table 1). Such assays are generally known in the art. See, e.g., Briand, et al., Ligand-Binding Properties and Structural Characterization of a Novel Rat Odorant-Binding Protein Variant, Eur. J. Biochem. 267(10): 3079-3089 (2000); Briand, et al., Ligand Binding and Physico-Chemical Properties of ASP2, A Recombinant Odorant-Binding Protein From Honeybee (Apis mellifera L.), Eur. J. Biochem. 268(3): 752-760 (2001); Briand, et al., Characterization of a Chemosensory Protein (ASP3c) from Honeybee (Apis mellifera L.) as a Brood Pheromone Carrier, Eur. J. Biochem. 269(18): 4586-4596 (2002), each of which is hereby incorporated by reference in its entirety.
SMILES,2-heptanone positive bees testing positive to compound [1] [%],OBP2 binding characteristic of compound (OBP2)
COC(=O)C1=C(C(=O)OC)SC(=C2C(=S)C(C)(C)N(C)c3ccccc32)S1 [compound 4],4.7,
COc1ccccc1N1C(=O)C(=Cc2ccc(Cl)cc2)SC1=S [compound 5],7.1,
CCN(CC)c1ccc2c(C)c([N+](=O)[O-])c(=O)oc2c1 [compound 6],0.0,
CC1=CC(C)(C)N(C(=O)c2ccc(Br)cc2)c2ccccc21 [compound 11],4.8,"Moderate (Moderate, indicates that 50% or less of the compound bound to OBP2.)"
CCOc1ccc(C=Nc2ccc(Br)c(Cl)c2)cc1 [compound 12],5.8,
COc1ccc2ccccc2c1C=NN1C(=O)c2ccccc2C1=O [compound 13],8.7,
O=[N+]([O-])c1ccc(N2CCOCC2)cc1OCCOc1ccccc1 [compound 14],3.9,"Moderate (Moderate, indicates that 50% or less of the compound bound to OBP2.)"
CCN1C(=O)C(=Cc2ccc(O)cc2)SC1=S [compound 15],4.1,"Strong (Strong, indicates that 51% or more of the compound bound to OBP2.)"
CCCCn1c(=O)c(C(=O)NCc2ccccn2)c(O)c2ccccc21 [compound 16],6.2,"Strong (Strong, indicates that 51% or more of the compound bound to OBP2.)"
COc1ccc2oc(C)c(C(=O)c3ccc(Br)cc3)c2c1 [compound 17],6.2,"Strong (Strong, indicates that 51% or more of the compound bound to OBP2.)"
O=c1[nH]c2ccccc2nc1-c1ccccc1NCc1ccc(F)cc1 [compound 18],4.1,"Strong (Strong, indicates that 51% or more of the compound bound to OBP2.)"
COC(=O)C1=C(C(=O)OC)SC(=C2C(=S)C(C)(C)Nc3cc(C)ccc32)S1 [compound 19],2.8,"Strong (Strong, indicates that 51% or more of the compound bound to OBP2.)"
CCOC(=O)c1cc(-c2cccc(N)c2)nc2ccccc12 [compound 21],4.4,"Strong (Strong, indicates that 51% or more of the compound bound to OBP2.)"
CC(C)Nc1c(Cl)c(Cl)c(Cl)c2c1C(=O)c1ccccc1C2=O [compound 22],4.4,"Strong (Strong, indicates that 51% or more of the compound bound to OBP2.)"
O=C(C=Cc1ccccc1)OCC1CCCN(Cc2cccc([N+](=O)[O-])c2)C1 (centres unmarked) [compound 23],3.3,"Strong (Strong, indicates that 51% or more of the compound bound to OBP2.)"
O=[N+]([O-])c1cc2c(cc1CN1CCN(c3cccc(Cl)c3)CC1)OCO2 [compound 24],4.8,
COc1ccc(CN2CCN(C)CC2)c(C)c1C [compound 25],6.6,Low*
COc1ccc(CN2CCN(c3cccc(C)c3C)CC2)c(C)c1C [compound 29],0.0,Low*
COc1cc(C)c(CN2CCN(CCO)CC2)cc1C [compound 31],0.0,
COc1ccc(CN(C)CCN(C)C)c(C)c1C [compound 32],2.4,

SMILES,2-heptanone positive bees testing positive to compound [1] [%],OBP2 binding characteristic of compound (OBP2)
COc1ccc(CN2CCOCC2)c(C)c1C [compound 33],8.5,Low*
Cc1cc(O)c(C2=Nc3ccccc3SC(c3ccc(O)cc3)C2)c(=O)o1 (centres unmarked) [compound 35],9.0,"Moderate (Moderate, indicates that 50% or less of the compound bound to OBP2.)"
COc1cccc(C(=O)Oc2ccc3c(c2)C(C)=CC(C)(C)N3)c1 [compound 37],14.4,"Moderate (Moderate, indicates that 50% or less of the compound bound to OBP2.)"
c1ccc(CCN(Cc2ccccc2)Cc2cccnc2)cc1 [compound 39],1.9,"Moderate (Moderate, indicates that 50% or less of the compound bound to OBP2.)"
CCOC(=O)C1=C(C)NC(C)=C(C(=O)OC)C1c1ccc(Br)cc1 (centres unmarked) [compound 41],1.4,"Moderate (Moderate, indicates that 50% or less of the compound bound to OBP2.)"
CC(C)(C)C1=CC(=NNC(N)=S)C=C(C(C)(C)C)C1=O [compound 42],2.6,"Moderate (Moderate, indicates that 50% or less of the compound bound to OBP2.)"
COC(=O)c1cc(S(=O)(=O)Nc2ccc(Br)cc2)ccc1Cl [compound 44],7.3,"Moderate (Moderate, indicates that 50% or less of the compound bound to OBP2.)"
CN1CCN(Cc2cc3c(cc2[N+](=O)[O-])OCO3)CC1 [compound 45],11.6,
COc1cc(CN2CCN(Cc3ccc4c(c3)OCO4)CC2)c([N+](=O)[O-])cc1OC [compound 46],12.8,
O=[N+]([O-])c1cc2c(cc1CN1CCSCC1)OCO2 [compound 47],18.3,
CN(CCc1ccccn1)Cc1cc2c(cc1[N+](=O)[O-])OCO2 [compound 48],18.9,
COc1ccc(CN2CCN(c3ccc(C)cc3)CC2)c(C)c1C [compound 49],0.0,
O=C(C=Cc1c[nH]c2ccccc12)c1ccc(C(=O)C=Cc2c[nH]c3ccccc23)cc1 [compound 51],14.8,
O=C(C=Cc1c[nH]c2ccccc12)c1ccc(-c2ccccc2)cc1 [compound 52],13.9,
Ic1ccc(-c2cn3ccsc3n2)cc1 [compound 53],18.2,"Moderate (Moderate, indicates that 50% or less of the compound bound to OBP2.)"
COc1ccc(CN2CCN(C)CC2)c(C)c1C [compound 62],11.6,
COc1ccc(CN2CCOCC2)c(C)c1C [compound 63],10.9,
COc1ccc(CN2CCN(Cc3cccc(C)c3)CC2)cc1 [compound 65],6.3,
COc1ccc(CN(C)CCN(C)C)c(C)c1C [compound 66],3.1,
